Experimental data as given in patent US20160317661A1, “DERMAL AND/OR TRANSDERMAL PHARMACEUTICAL COMPOSITION CONTAINING A TERPENOID COMPOUND” (EPINAMICS GMBH, priority 2013, published 2016).
Converted amounts (≈) assume the structure as drawn. Structures can show the parent of a compound that is named as a salt.

Experiments:
[1] = Solubilities of active ingredients in carvacrol or carvacrol-containing (or thymol) formulations; format: physicochemical
Excerpt: The mixing ratios are always given as volume proportions. Liqui-Patch® are formulations of ready-to-use mixtures of polymers and other additives for making transdermal systems and are obtainable from the company epinamics GmbH. In the formulation employed here, Liqui-Patch® contains the following components: mixture of 10 g triethyl citrate, 100 g water (demineralized or medical), 100 g DynamX®, 790 g ethanol.

[2] = Volatility of carvacrol with different admixtures (spots on glass plate at 35° C., recovery); format: physicochemical; conditions: for V.C. 30 min. (volatile carvacrol) / V.C. 3 h (volatile carvacrol): carvacrol 20%, remainder ethanol, 35° C.
Description: For testing whether carvacrol is suitable for transdermal systems or whether carvacrol is contained sufficiently long in transdermal systems, the volatility was investigated with different admixtures. The volatility is important, in order to keep the active ingredients sufficiently long in solution in the film.
For the measurement, two spots of 5 μl of each formulation, containing 1 mg carvacrol, were applied per point of time on a glass plate kept at 35° C. Two spots of a respective point of time (30 min. and 3 h after application of the spot) were wiped off with a cotton applicator. The amount of wiped-off carvacrol was determined. The difference to 100% intended recovery rate is the volatile carvacrol. The abbreviation V. refers to “volatile”, the abbreviation C. refers to carvacrol. The share of carvacrol is always 20%, the remainder relative to the sum of carvacrol and the additive is ethanol. Amounts are given in vol.-%.

[3] = Solubilities of clotrimazole and testosterone in different solvents; conditions: for Solubilities in solvents with compounds employed according to the invention, compared with other solvents: Table II; for solubility: organic solvent or mixture
[4] = additive Ethylmethyl ketone 10%
[5] = additive Ethylmethyl ketone 20%
[6] = additive Isopropyl myristate 10%
[7] = additive Isopropyl myristate 20%
[8] = additive Propylene carbonate 10%
[9] = additive Propylene carbonate 20%
[10] = additive Propylene glycol 10%/menthol 5%
[11] = additive Propylene glycol 20%/menthol 10%
[12] = solvent: Carvacrol/Liqui-Patch (1:1), volume proportions

Which Dissolved amount ([1]; solvent: Carvacrol) does the source give for `Cl.Cl.Fc1ccc(C(c2ccc(F)cc2)N2CCN(C/C=C/c3ccccc3)CC2)cc1` [Flunarizine*2HCl] here?
The Dissolved amount was 60 mg/mL.

With `O=c1[nH]c(=O)c2[nH]c(=O)[nH]c2[nH]1` [Uric acid] as the compound, how does the Dissolved amount ([1]; solvent: Carvacrol) read?
The Dissolved amount was less than 20 mg/mL.

What does the source list for `Cc1ccc(C(C)C)cc1O` [carvacrol]?
V.C. 30 min. (volatile carvacrol) [2, 4]: 33%; V.C. 3 h (volatile carvacrol) [2, 4]: 100%; V.C. 30 min. (volatile carvacrol) [2, 5]: 45%; V.C. 3 h (volatile carvacrol) [2, 5]: 100%; V.C. 30 min. (volatile carvacrol) ([2]; additive Glycerol 10%): 28%; V.C. 3 h (volatile carvacrol) ([2]; additive Glycerol 10%): 96%; V.C. 30 min. (volatile carvacrol) ([2]; additive Glycerol 20%): 33%; V.C. 3 h (volatile carvacrol) ([2]; additive Glycerol 20%): 88%; V.C. 30 min. (volatile carvacrol) [2, 6]: 26%; V.C. 3 h (volatile carvacrol) [2, 6]: 46%; V.C. 30 min. (volatile carvacrol) [2, 7]: 24%; V.C. 3 h (volatile carvacrol) [2, 7]: 32%; V.C. 30 min. (volatile carvacrol) [2, 8]: 29%; V.C. 3 h (volatile carvacrol) [2, 8]: 49%; V.C. 30 min. (volatile carvacrol) [2, 9]: 11%; V.C. 3 h (volatile carvacrol) [2, 9]: 24%; V.C. 30 min. (volatile carvacrol) [2, 10]: 40%; V.C. 3 h (volatile carvacrol) [2, 10]: 97%; V.C. 30 min. (volatile carvacrol) ([2]; additive Propylene glycol 10%): 40%; V.C. 3 h (volatile carvacrol) ([2]; additive Propylene glycol 10%): 51%; V.C. 30 min. (volatile carvacrol) [2, 11]: 0%; V.C. 3 h (volatile carvacrol) [2, 11]: 46%; V.C. 30 min. (volatile carvacrol) ([2]; additive Propylene glycol 20%): 1%; V.C. 3 h (volatile carvacrol) ([2]; additive Propylene glycol 20%): 33%; V.C. 30 min. (volatile carvacrol) ([2]; additive Water 10%): 18%; V.C. 3 h (volatile carvacrol) ([2]; additive Water 10%): 94%; V.C. 30 min. (volatile carvacrol) ([2]; additive Water 20%): 0%; V.C. 3 h (volatile carvacrol) ([2]; additive Water 20%): 94%; Volatility of carvacrol ([2]; by propylene carbonate, propylene glycol, or isopropyl myristate as additive): reduced

Which Dissolved amount ([1]; solvent: Carvacrol) does the source give for `Oc1cccc2cccnc12` [8-Hydroxyquinoline] here?
Its Dissolved amount is greater than 100 mg/mL.

Which Dissolved amount ([1]; solvent: Carvacrol) does the source give for `O=C(O)c1cc(=O)c2c(OCC(O)COc3cccc4oc(C(=O)O)cc(=O)c34)cccc2o1` [Cromoglicic acid-Na, Cromoglicic acid disodium salt] here?
Its Dissolved amount is 50 mg/mL.

With `CC(=O)N1CCN(c2ccc(OCC3COC(Cn4ccnc4)(c4ccc(Cl)cc4Cl)O3)cc2)CC1` (stereo not drawn) [Ketoconazole] as the compound, how does the Dissolved amount ([1]; solvent: Carvacrol) read?
The Dissolved amount was 140 mg/mL.

Which Dissolved amount ([1]; solvent: Carvacrol) does the source give for `CC[C@H]1OC(=O)[C@H](C)[C@@H](O[C@H]2C[C@@](C)(OC)[C@@H](O)[C@H](C)O2)[C@H](C)[C@@H](O[C@@H]2O[C@H](C)C[C@H](N(C)C)[C@H]2O)[C@](C)(O)C[C@@H](C)C(=O)[C@H](C)[C@@H](O)[C@]1(C)O` [Erythromycin] here?
The Dissolved amount was 110 mg/mL.

Which Dissolved amount ([1]; solvent: Carvacrol) does the source give for `CC1=CC(=O)C(C(C)C)=CC1=O` [Thymoquinone] here?
The Dissolved amount was greater than 100 mg/mL.

For `CCCCCCCCCCCC(=O)O` [Lauric acid], which Dissolved amount ([1]; solvent: Carvacrol) is on record?
Its Dissolved amount is 500 mg/mL.

What about the Dissolved amount [1, 12] of the same compound?
The Dissolved amount was 250 mg/mL.

For `O=c1[nH]cc(F)c(=O)[nH]1` [5-Fluorouracil], which Dissolved amount ([1]; solvent: Carvacrol) is on record?
The Dissolved amount was 25 mg/mL.

For `C=C(c1ccc(C(=O)O)cc1)c1cc2c(cc1C)C(C)(C)CCC2(C)C` [Bexarotene], which Dissolved amount ([1]; solvent: Carvacrol) is on record?
The Dissolved amount was 60 mg/mL.

What about the Dissolved amount [1, 12] of the same compound?
The Dissolved amount was 30 mg/mL.

With `O=C(O)c1ccccc1O` [Salicylic acid] as the compound, how does the Dissolved amount ([1]; solvent: Carvacrol/Methanol (1:1), volume proportions) read?
Its Dissolved amount is 240 mg/mL.

For `O=c1oc2c(O)c(O)cc3c(=O)oc4c(O)c(O)cc1c4c23` [Ellagic acid], which Dissolved amount ([1]; solvent: Carvacrol) is on record?
Its Dissolved amount is 60 mg/mL.

Which “Solubilities in solvents with compounds employed according to the invention, compared with other solvents” value [3] does the source give for `C[C@]12CC[C@H]3[C@@H](CCC4=CC(=O)CC[C@@]43C)[C@@H]1CC[C@@H]2O` [Testosterone] here?
Its value is “considerably higher”.

What about the solubility ([3]; solvent: 4-Methyl-Anisole) of the same compound?
Its solubility is less than 250 mg/mL.

What about the solubility ([3]; solvent: 20% 4MS/80% EtOH) of the same compound?
Its solubility is 335 mg/mL (≈ 1160 mM).

What about the solubility ([3]; solvent: 20% (S)-(—)-Limonene/80% Ethanol) of the same compound?
Its solubility is 200 mg/mL (≈ 693 mM).

What about the solubility ([3]; solvent: 20% Anisole/80% EtOH) of the same compound?
Its solubility is 500 mg/mL (≈ 1730 mM).

What about the solubility ([3]; solvent: 20% Carvacrol/80% Acetone) of the same compound?
The solubility was 170 mg/mL (≈ 589 mM).

And the solubility ([3]; solvent: 20% Carvacrol/80% EtOH)?
Its solubility is 260 mg/mL (≈ 901 mM).

And the solubility ([3]; solvent: 20% Carvacrol/80% LP (Liqui-Patch))?
The solubility was 250 mg/mL (≈ 867 mM).

And the solubility ([3]; solvent: 20% Gamma-Terpinene/80% ethalol)?
Its solubility is 200 mg/mL (≈ 693 mM).

What about the solubility ([3]; solvent: 20% Guaiacol/80% EtOH) of the same compound?
Its solubility is 300 mg/mL (≈ 1040 mM).

What about the solubility ([3]; solvent: 20% Guaiacol/80% LP (Liqui-Patch)) of the same compound?
Its solubility is 270 mg/mL (≈ 936 mM).

And the solubility ([3]; solvent: 20% Thymol/80% Acetone)?
The solubility was 180 mg/mL (≈ 624 mM).

And the solubility ([3]; solvent: 20% Thymol/80% EtOH)?
The solubility was 330 mg/mL (≈ 1140 mM).

What about the solubility ([3]; solvent: 20% Thymol/80% LP (Liqui-Patch)) of the same compound?
The solubility was 300 mg/mL (≈ 1040 mM).

And the solubility ([3]; solvent: 20% p-Cymene/80% Ethanol)?
The solubility was 300 mg/mL (≈ 1040 mM).

What about the solubility ([3]; solvent: (S)-(—)-Limonene) of the same compound?
Its solubility is less than 100 mg/mL.

What about the solubility ([3]; solvent: Acetone) of the same compound?
The solubility was 60 mg/mL (≈ 208 mM).

What about the solubility ([3]; solvent: Anisole) of the same compound?
Its solubility is less than 100 mg/mL.

And the solubility ([3]; solvent: Ethanol)?
Its solubility is 90 mg/mL (≈ 312 mM).

What about the solubility ([3]; solvent: Gamma-Terpinene) of the same compound?
Its solubility is less than 100 mg/mL.

What about the solubility ([3]; solvent: Guaiacol) of the same compound?
Its solubility is 270 mg/mL (≈ 936 mM).

And the solubility ([3]; solvent: LP (Liqui-Patch))?
Its solubility is 190 mg/mL (≈ 659 mM).

And the solubility ([3]; solvent: Methyl salicylate (4MS))?
Its solubility is less than 100 mg/mL.

And the solubility ([3]; solvent: carvacrol)?
Its solubility is 230 mg/mL (≈ 797 mM).

What about the solubility ([3]; solvent: p-Cymene) of the same compound?
Its solubility is less than 100 mg/mL.

What about the Dissolved amount ([1]; solvent: Carvacrol) of the same compound?
The Dissolved amount was 220 mg/mL.

With `Clc1ccccc1C(c1ccccc1)(c1ccccc1)n1ccnc1` [Clotrimazole] as the compound, how does the “Solubilities in solvents with compounds employed according to the invention, compared with other solvents” value [3] read?
The value was “considerably higher”.

What about the Dissolved amount ([1]; solvent: Carvacrol) of the same compound?
The Dissolved amount was 410 mg/mL.

For `CCn1cc(C(=O)O)c(=O)c2ccc(C)nc21` [Nalidixic Acid], which Dissolved amount ([1]; solvent: Carvacrol) is on record?
The Dissolved amount was 108 mg/mL.

With `CN(C/C=C/C#CC(C)(C)C)Cc1cccc2ccccc12` [Terbinafine] as the compound, how does the Dissolved amount ([1]; solvent: Thymol/Ethanol (1:1)) read?
The Dissolved amount was 406 mg/mL.

With `O=C(CCCN1CCC(O)(c2ccc(Cl)cc2)CC1)c1ccc(F)cc1` [Haloperidol] as the compound, how does the Dissolved amount ([1]; solvent: Carvacrol) read?
Its Dissolved amount is 100 mg/mL.

With `COc1cc(/C=C/C(=O)CC(=O)/C=C/c2ccc(O)c(OC)c2)ccc1O` [Curcumin] as the compound, how does the Dissolved amount ([1]; solvent: Carvacrol) read?
Its Dissolved amount is 20 mg/mL.

For `O=c1ccc2ccccc2o1` [Coumarin], which Dissolved amount ([1]; solvent: Carvacrol) is on record?
Its Dissolved amount is greater than 200 mg/mL.

For `CN1C2CCCC1CC(NC(=O)c1nn(C)c3ccccc13)C2` (stereo not drawn) [Granisetron], which Dissolved amount ([1]; solvent: Carvacrol 62.5% Methanol 31.25% 2M NaOH/H2O 6.25%) is on record?
The Dissolved amount was 71.25 mg/mL.

For `Nc1cc(=O)[nH]c(=O)[nH]1` [6-Aminouracil], which Dissolved amount ([1]; solvent: Carvacrol) is on record?
Its Dissolved amount is less than 50 mg/mL.
